In US5874442A, “Tricyclic amides useful for inhibition of G-protein function and for treatment of proliferative disease” (Schering-Plough Corporation, priority 1996, dated 1999):

Experiments:
[1] = test system: T24-BAG4 human bladder carcinoma cells expressing an activated H-ras gene; test: Cell mat assay, T24-BAG4 tumor cells; format: cell-based; settings: Homo sapiens, 336 h, read-out: Tumor (T-24) IC50
Experimental: (§1) Compound-induced colony inhibition was assayed by addition of serial dilutions of compound directly to the growth medium 24 h after tumor cell planting, and incubating cells for an additional 14 d to allow colony formation. Assays were terminated by rinsing monolayers twice with phosphate-buffered saline (PBS), fixing the monolayers with a 1% glutaraldehyde solution in PBS, then visualizing tumor cells by staining with X-Gal (Price, J., et al., Lineage analysis in the vertebrate nervous system by retrovirus-mediated gene transfer, Proc. Natl. Acad. Sci.84, 156-160(1987)). […] Both IC50 values were obtained by determining the density of tumor cells and mat cells by visual inspection and enumeration of cells per colony and the number of colonies under the microscope.

[2] = test system: HTB 175; test: Soft agar assay; format: cell-based; settings: Homo sapiens; HTB 175 (SCLC) ras mut. not detected; read-out: IC50, inhibition of human tumor cell growth, soft agar
Experimental: (§2) Anchorage-independent growth is a characteristic of tumorigenic cell lines. Human tumor cells are suspended in growth medium containing 0.3% agarose and an indicated concentration of a farnesyl transferase inhibitor. The solution is overlayed onto growth medium solidified with 0.6% agarose containing the same concentration of farnesyl transferase inhibitor as the top layer. […] After incubation, the colonies are stained by overlaying the agar with a solution of MTT (3-[4,5-dimethylthiazol-2-yl]-2,5-diphenyltetrazolium bromide, Thiazolyl blue) (1 mg/mL in PBS). Colonies are counted and the IC50's determined.

[3] = test system: HTB 177; test: Soft agar assay; format: cell-based; settings: Homo sapiens; HTB 177 (NSCLC) K ras mutation; read-out: IC50, inhibition of human tumor cell growth, soft agar
Experimental: as §2

[4] = test system: A549; test: Soft agar assay; format: cell-based; settings: Homo sapiens; A549 (lung) K ras mutation; read-out: IC50, inhibition of human tumor cell growth, soft agar
Experimental: as §2

[5] = test system: SW620-BAG human colon carcinoma cells expressing an activated K-ras gene; test: Cell mat assay, SW620-BAG tumor cells; format: cell-based; settings: Homo sapiens, SW-620, 336 h, read-out: Tumor (SW620) IC50, Mat assay, 14 d
Experimental: as §1
Additional assays were carried out by following essentially the same procedure as described above, but with substitution of alternative indicator tumor cell lines in place of the T24-BAG cells. The assays were conducted using either DLD-1-BAG human colon carcinoma cells expressing as activated K-ras gene or SW620-BAG human colon carcinoma cells expressing an activated K-ras gene.

[6] = test system: K ras NIH 3T3; test: Soft agar assay; format: cell-based; settings: Mus musculus, NIH3T3, read-out: IC50, inhibition of human tumor cell growth, soft agar
[7] = test system: Normal human HEPM fibroblasts; test: Cell mat assay, normal cells (cell mat); format: cell-based; settings: Homo sapiens, Fibroblast, 336 h, read-out: Normal IC50
Experimental: as §1

[8] = test system: H ras NIH 3T3; test: Soft agar assay; format: cell-based; settings: Mus musculus, NIH3T3, read-out: IC50, inhibition of human tumor cell growth, soft agar
[9] = test system: Ras-CVLS processing in COS cells; test: Cell-based COS cell assay: inhibition of Ras processing (Ras-CVLS); parameters: species or system monkey; settings: Primates, COS, read-out: Inhibition of Ras Processing IC50, Table 3, COS cells
Text: Transient expression of val^12 -Ha-Ras-CVLS and […] -Ha-Ras-CVLL in COS monkey kidney cells: Effect of farnesyl protein transferase inhibitors on Ras processing and on disordered cell growth induced by transforming Ras.
COS monkey kidney cells were transfected by electroporation with the plasmid pSV-SPORT (Gibco/BRL) containing a cDNA insert encoding either Ras-CVLS or Ras-CVLL, leading to transient overexpression of a Ras substrate for either farnesyl protein transferase or geranylgeranyl protein transferase I, respectively (see above).
Following electroporation, cells were plated into 6-well tissue culture dishes containing 1.5 ml of Dulbecco's-modified Eagle's media (GIBCO, Inc.) supplemented with 10% fetal calf serum and the appropriate farnesyl protein transferase inhibitors. After 24 hours, media was removed and fresh media containing the appropriate drugs was re-added.
48 hours after electroporation cells were examined under the microscope to monitor disordered cell growth induced by transforming Ras. Cells expressing transforming Ras become more rounded and refractile and overgrow the monolayer, reminiscent of the transformed phenotype. Cells were then photographed, washed twice with 1 ml of cold phosphate-buffered saline (PBS) and removed from the dish by scraping with a rubber policeman into 1 ml of a buffer containing 25 mM Tris, pH 8.0; 1 mM ethylenediamine tetraacetic acid; 1 mM phenylmethylsulfonyl fluoride; […]; and 0.1 mM pepstatin. Cells were lysed by homogenization and cell debris was removed by centrifugation at 2000× g for 10 min.
Cellular protein was precipitated by addition of ice-cold trichloroacetic acid and redissolved in […] of SDS-electrophoresis sample buffer. […] Proteins resolved on the gels were electroblotted onto nitrocellulose membranes for immunodetection.
After washing, membranes were incubated for one hour at room temperature with a 1:5000 dilution of secondary antibody, rabbit anti-rat lgG conjugated to horseradish peroxidase, in PBS containing 1% fetal calf serum. The presence of processed and unprocessed Ras-CVLS or Ras-CVLL was detected using a colorimetric peroxidase reagent (4-chloro-1-naphthol) as described by the manufacturer (Bio-Rad).

## NC(=O)N1CCC(CC(=O)N2CCC([C@H]3c4ncc(Br)cc4CCc4cc(Cl)cc(Br)c43)CC2)CC1 [Example 10]
[1]
  IC50: < 1600 nM
[2]
  IC50: 250 nM
[3]
  IC50: 40 nM
[4]
  IC50: 150 nM
[5]
  IC50: 3100 nM
[6]
  IC50: 400 nM
[7]
  IC50: > 25000 nM
[8]
  IC50: 75 nM
[9]
  IC50: < 25 nM
